Experiments:
[1] = target: human TLR7 (Homo sapiens (Human), UniProt Q9NYK1); test: HEK293-Blue-hTLR-7 cells assay; format: cell-based; settings: HEK293-Blue-hTLR7 cells, R848 stimulation, 20 hrs, SEAP reporter; read-out: HEK/hTLR7 IC50
Procedure, shortened: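 HEK293-Blue cells stably expressing hTLR7 with NF-κB/AP-1-driven SEAP reporter, incubated 20 h at 37 °C with serially diluted compound (1% DMSO) plus R848 agonist (10 μL of 20 μM stock). Supernatant SEAP measured with QUANTI-Blue after 2 h at 37 °C, absorbance 620-655 nm; antagonism as reduced reporter.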

[2] = target: human TLR9 (Homo sapiens (Human), UniProt Q9NR96); test: HEK293-Blue-hTLR-9 cells assay; format: cell-based; settings: HEK293-Blue-hTLR9 cells, ODN2006 stimulation, 20 hrs, SEAP reporter; read-out: HEK/hTLR9 IC50
[3] = Human microsomal stability assay; format: in vitro ADME; settings: human liver microsomes, 1 μM test compound, 37° C., pH 7.4
Procedure: Human Microsomal Stability Assay
Human liver microsomes (Cat. NO.: 452117, Corning, USA) were preincubated with test compound for 10 minutes at 37° C. in 100 mM potassium phosphate buffer, pH 7.4. The reactions were initiated by adding NADPH regenerating system. The final incubation mixtures contained 1 μM test compound, 0.5 mg/mL liver microsomal protein, 1 mM MgCl2, 1 mM NADP, 1 unit/mL isocitric dehydrogenase and 6 mM isocitric acid in 100 mM potassium phosphate buffer, pH 7.4. After incubation times of 0, 3, 6, 9, 15 and 30 minutes at 37° C., 300 μL of cold ACN (including internal standard) was added to 100 μL incubation mixture to terminate the reaction. Following precipitation and centrifugation, 100 μL supernatant will be taken out and added 300 μL water. The amount of compound remaining in the samples was determined by LC-MS/MS. Controls of no NADPH regenerating system at zero and 30 minutes were also prepared and analyzed. The results were categorized as: low (<7.0 mL/min/kg), medium (7.0-16.2 mL/min/kg) and high (16.2-23.2 mL/min/kg).

Sequence of human TLR7 (Q9NYK1 27-1049): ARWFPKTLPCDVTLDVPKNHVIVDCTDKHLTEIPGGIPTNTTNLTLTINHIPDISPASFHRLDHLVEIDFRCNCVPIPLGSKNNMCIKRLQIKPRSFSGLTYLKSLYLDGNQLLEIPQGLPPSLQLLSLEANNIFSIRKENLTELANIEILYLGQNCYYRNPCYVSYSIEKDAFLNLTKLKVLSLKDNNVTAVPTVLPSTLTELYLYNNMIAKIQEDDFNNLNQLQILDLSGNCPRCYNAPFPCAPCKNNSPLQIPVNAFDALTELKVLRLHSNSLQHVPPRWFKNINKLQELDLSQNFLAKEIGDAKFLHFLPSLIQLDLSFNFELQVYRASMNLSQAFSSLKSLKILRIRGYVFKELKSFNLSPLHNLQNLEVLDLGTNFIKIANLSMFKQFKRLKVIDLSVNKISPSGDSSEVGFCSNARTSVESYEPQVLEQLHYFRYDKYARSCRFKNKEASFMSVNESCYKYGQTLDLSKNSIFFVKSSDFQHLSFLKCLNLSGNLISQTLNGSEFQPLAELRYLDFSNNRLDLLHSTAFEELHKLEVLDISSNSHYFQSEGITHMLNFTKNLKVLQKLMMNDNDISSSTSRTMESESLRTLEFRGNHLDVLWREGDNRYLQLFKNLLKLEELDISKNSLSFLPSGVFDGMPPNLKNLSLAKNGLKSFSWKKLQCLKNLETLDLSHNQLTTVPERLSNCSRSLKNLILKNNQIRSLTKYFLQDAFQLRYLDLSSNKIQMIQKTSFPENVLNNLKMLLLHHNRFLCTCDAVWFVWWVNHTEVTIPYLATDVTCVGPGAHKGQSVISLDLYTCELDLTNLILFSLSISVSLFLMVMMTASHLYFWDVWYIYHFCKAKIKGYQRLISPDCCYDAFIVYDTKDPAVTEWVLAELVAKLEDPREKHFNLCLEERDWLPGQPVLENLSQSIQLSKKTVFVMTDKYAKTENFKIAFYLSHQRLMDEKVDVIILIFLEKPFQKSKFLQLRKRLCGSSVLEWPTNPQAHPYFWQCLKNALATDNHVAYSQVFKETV
Sequence of human TLR9 (Q9NR96 26-1032): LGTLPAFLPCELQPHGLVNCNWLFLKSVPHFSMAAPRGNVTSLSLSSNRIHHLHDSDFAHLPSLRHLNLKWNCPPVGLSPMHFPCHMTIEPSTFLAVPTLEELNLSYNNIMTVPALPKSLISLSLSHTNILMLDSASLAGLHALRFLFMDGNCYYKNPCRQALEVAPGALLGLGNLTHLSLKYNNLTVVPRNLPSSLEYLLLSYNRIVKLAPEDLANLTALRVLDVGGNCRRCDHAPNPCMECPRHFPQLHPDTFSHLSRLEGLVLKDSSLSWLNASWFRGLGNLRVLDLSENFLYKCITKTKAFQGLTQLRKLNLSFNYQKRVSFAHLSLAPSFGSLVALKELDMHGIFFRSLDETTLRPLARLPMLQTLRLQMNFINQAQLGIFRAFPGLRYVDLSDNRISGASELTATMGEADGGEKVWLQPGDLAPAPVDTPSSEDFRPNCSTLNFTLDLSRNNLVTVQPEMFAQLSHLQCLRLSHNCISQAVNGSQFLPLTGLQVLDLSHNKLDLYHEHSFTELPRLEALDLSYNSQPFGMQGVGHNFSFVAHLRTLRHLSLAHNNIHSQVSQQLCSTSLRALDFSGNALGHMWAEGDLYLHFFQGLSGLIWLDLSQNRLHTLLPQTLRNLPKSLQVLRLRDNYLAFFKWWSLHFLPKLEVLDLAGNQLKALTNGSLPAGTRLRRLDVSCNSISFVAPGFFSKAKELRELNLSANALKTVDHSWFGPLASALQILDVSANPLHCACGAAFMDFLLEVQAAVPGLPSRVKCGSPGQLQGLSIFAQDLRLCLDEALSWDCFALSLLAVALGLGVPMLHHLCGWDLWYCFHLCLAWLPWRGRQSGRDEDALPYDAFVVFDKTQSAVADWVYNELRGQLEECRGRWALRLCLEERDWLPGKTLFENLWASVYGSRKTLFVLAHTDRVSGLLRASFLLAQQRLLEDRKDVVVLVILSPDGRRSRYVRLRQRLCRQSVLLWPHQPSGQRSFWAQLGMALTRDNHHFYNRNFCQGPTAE

Row | Structure (SMILES) | IC50 [1] [nM] | IC50 [2] [nM] | CL (h) [3] [mL/min/kg]
1 | C[C@@H]1CN(c2ccc(C#N)c3ncccc23)C[C@@H]2C[C@@H](Nc3ccc4c(n3)CCNC4)CN21 [Example 1, 5-[(4R,7R,8aS)-4-methyl-7-(5,6,7,8-tetrahydro-1,6-naphthyridin-2-ylamino)-3,4,6,7,8,8a-hexahydro-1H-pyrrolo[1,2-a]pyrazin-2-yl]quinoline-8-carbonitrile] | 16.1 | 43.4 | 9.1
2 | C[C@@H]1CN(c2ccc(C#N)c3ncccc23)C[C@@H]2C[C@@H](Nc3cc4c(cn3)CCNC4)CN21 [Example 2, 5-[(4R,7R,8aS)-4-methyl-7-(5,6,7,8-tetrahydro-2,6-naphthyridin-3-ylamino)-3,4,6,7,8,8a-hexahydro-1H-pyrrolo[1,2-a]pyrazin-2-yl]quinoline-8-carbonitrile] | 40.5 | 89.5 | 7.3
3 | C[C@@H]1CN(c2ccc(C#N)c3ncccc23)C[C@@H]2C[C@@H](Nc3ccc4c(n3)CNCC4)CN21 [Example 3, 5-[(4R,7R,8aS)-4-methyl-7-(5,6,7,8-tetrahydro-1,7-naphthyridin-2-ylamino)-3,4,6,7,8,8a-hexahydro-1H-pyrrolo[1,2-a]pyrazin-2-yl]quinoline-8-carbonitrile] | 38.7 | 114 | 6.7
4 | [2H]c1ccc2c(N3C[C@@H]4C[C@H](N5CCNCC5)CN4[C@H](C)C3)ccc(C#N)c2n1 [Example 15, 5-[(4R,7S,8aS)-4-methyl-7-piperazin-1-yl-3,4,6,7,8,8a-hexahydro-1H-pyrrolo[1,2-a]pyrazin-2-yl]-2-deuterio-quinoline-8-carbonitrile] | 12.9 | 120 | 8.0
5 | [2H]c1ccc2c(N3C[C@@H]4C[C@H](N5CCC(N(C)C)CC5)CN4[C@H](C)C3)ccc(C#N)c2n1 [Example 20, 5-[(4R,7S,8aS)-7-[4-(dimethylamino)-1-piperidyl]-4-methyl-3,4,6,7,8,8a-hexahydro-1H-pyrrolo[1,2-a]pyrazin-2-yl]-2-deuterio-quinoline-8-carbonitrile] | 18.9 | 150 | 6.2

— patent US12486273B2 (Hoffmann-La Roche Inc., priority 2019, dated 2025)
